Experimental data taken from paper PMC6152231, “Anti-Inflammatory Triterpene Glycosides from the Roots of Ilex dunniana Levl” (Molecules : A Journal of Synthetic Chemistry and Natural …, 2017).

How the values were obtained:
[1] = tested on: LPS-induced NO production in mouse BV2 microglial cells; test: inhibition of LPS-induced NO production (Griess); type: cell-based; details: BV-2, LPS 1 μg/mL, 24 h, n = 3, read-out: IC50 against LPS-induced NO production
Protocol: BV2 microglial cells were maintained in RPMI1640 medium at 37 °C in 5% CO2. The cells were placed in 48-well plates and preincubated for 24 h, treated with tested triterpene glycosides dissolved in DMSO at various final concentrations (5.0, 10.0, 20.0, 40.0, 80.0 μM) in triplicate for 1 h, and continuously incubated with LPS (1 μg/mL) for 24 h. Dexamethasone (10^−6 M) was used as the positive control. From each well, the supernatants (100 μL) were mixed with an equal amount of Griess reagent at room temperature for 20 min. The concentration of NO2^− was measured for the amount of NO by a microplate reader at 570 nm, using sodium nitrite as the standard to calculate the concentration of the nitrite.

BV2 microglial cells = test: cytotoxicity, MTT assay; type: cell-based, mouse; details: for Cell Viability: 24 h, BV2 microglial cells, n = 3, in % (unit assumed)
Protocol: Cell viabilities were measured using the MTT assay. Briefly, BV2 microglial cells were seeded in 96-well plates at concentrations of 1 × 10^5 cells per well. After incubation for 2 h, the cells were incubated with compounds for 24 h and then washed with PBS three times. Following the washing step, 200 μL of RPMI 1640 medium containing 0.5 mg/mL MTT were added to each well, the cells were then incubated at 37 °C for another 4 h. Finally, the culture medium was removed, and the formazan crystal was dissolved by adding 150 μL of DMSO. Absorbances at 570 nm were measured using a microplate reader.

[2] = tested on: ear edema induced by croton oil in mice; test: croton oil-induced ear edema in mice; type: in vivo; details: ICR male mice, dose 1.0 mg/kg, positive control
Protocol: On the basis of the inhibition of croton oil-induced ear edema in mice, the topical anti-inflammatory activity of the test compounds was evaluated. Animal experiments were performed in accordance to the Institutional Guidelines for Animal Care and Use of the Chinese Academy of Medical Sciences and Peking Union Medical College. The protocol was approved by the Committee on the Ethics of Animal Experiments of the Chinese Academy of Medical Sciences and Peking Union Medical College (permit pumber: 002973).The croton oil (Croton tiglium L., seed oil) was purchased from Sigma-Aldrich (St. Louis, MO, USA). In ICR male mice (18–20 g, n = 10 per group), croton oil (0.4 mg) was mixed with acetone (1 mL) to be applied to the left ear (10 μL each side) topically to induce ear edema. The animals were administered with candidate extracts (50 mg/kg) for 1 h, followed by treatment with croton oil for 4 h. […] Based on the weight difference between two plugs (8 mm diameter) of the treated (left) and untreated (right) ears, the edematous response was measured. The percentage reduction in edema in treated mice compared with control mice is calculated for the expression of anti-inflammatory activity.

For CCCCOC(=O)C1OC(OC2CCC3(C)C(CCC4(C)C3CC=C3C5C(C(=O)OC6OC(CO)C(O)C(O)C6O)(CCC(C)C5(C)O)CCC34C)C2(C)C)C(O)C(O)C1O [Compound 1, 3β-(6-O-n-butyl-D-glucuronopyranosyl)-19α-hydroxy-urs-12-en-28-oic acid 28-O-β-D-glucopyranoside], the IC50 [1] was 11.6 ± 0.89 µM, the “Cell Viability” value (BV2 microglial cells; 5.0 μM) was 99.74 ± 1.21 and the “Cell Viability” value (BV2 microglial cells; 10.0 μM) was 99.28 ± 1.32. For the same compound, the “Cell Viability” value (BV2 microglial cells; 20.0 μM) was 99.35 ± 1.26, the “Cell Viability” value (BV2 microglial cells; 40.0 μM) was 99.62 ± 1.89 and the “Cell Viability” value (BV2 microglial cells; 80.0 μM) was 99.70 ± 1.36.
With CCCCOC(=O)C1OC(OC2CCC3(C)C(CCC4(C)C3CC=C3C5C(C(=O)OC6OC(CO)C(O)C(O)C6O)(CCC(C)C5(C)O)CCC34C)C2(C)C)C(O)C(OS(=O)(=O)O)C1O [Compound 2, 3β-(3-O-sulphonyl-6-O-n-butyl-D-glucuronopyranosyl)-19α-hydroxy-urs-12-en-28-oic acid 28-O-β-D-glucopyranoside] the IC50 [1] was 12.3 ± 1.21 µM, the “Cell Viability” value (BV2 microglial cells; 5.0 μM) was 98.32 ± 2.05 and the “Cell Viability” value (BV2 microglial cells; 10.0 μM) was 98.25 ± 1.87. The “Cell Viability” value (BV2 microglial cells; 20.0 μM) was 98.16 ± 1.25, the “Cell Viability” value (BV2 microglial cells; 40.0 μM) was 98.56 ± 1.37 and the “Cell Viability” value (BV2 microglial cells; 80.0 μM) was 98.26 ± 1.88.
In the case of C[C@@H]1CC[C@]2(C(=O)O[C@@H]3O[C@H](CO)[C@@H](O)[C@H](O)[C@H]3O)CC[C@]3(C)C(=CCC4[C@@]5(C)CC[C@H](O[C@@H]6O[C@H](CO)[C@@H](O)[C@H](O)[C@H]6O[C@@H]6O[C@H](CO)[C@@H](O[C@@H]7O[C@H](CO)[C@@H](O)[C@H](O)[C@H]7O)[C@H](O)[C@H]6O)C(C)(C)C5CC[C@]43C)[C@@H]2[C@]1(C)O (stereo partly drawn) [Compound 3, hylonoside II], the IC50 [1] is reported as 9.7 ± 0.86 µM, the “Cell Viability” value (BV2 microglial cells; 5.0 μM) is reported as 91.74 ± 1.11 and the “Cell Viability” value (BV2 microglial cells; 10.0 μM) is reported as 90.28 ± 1.82. The “Cell Viability” value (BV2 microglial cells; 20.0 μM) was 89.35 ± 1.35, the “Cell Viability” value (BV2 microglial cells; 40.0 μM) was 88.62 ± 1.21 and the “Cell Viability” value (BV2 microglial cells; 80.0 μM) was 88.50 ± 1.32. The “cytotoxic activity against microglial cell, in words” value (BV2 microglial cells; BV2 microglial cells in vitro) was “showed cytotoxic activity”.
C[C@H]1CC[C@]2(C(=O)O[C@@H]3O[C@H](CO)[C@@H](O)[C@H](O)[C@H]3O)CC[C@]3(C)C(=CCC4[C@@]5(C)CC[C@H](O[C@@H]6OC[C@H](O)[C@H](OS(=O)(=O)O)[C@H]6O)C(C)(C)C5CC[C@]43C)C2[C@]1(C)O (stereo partly drawn) [Compound 4, ilexpublesnin H] was tested, and the IC50 [1] was 33.5 ± 2.11 µM, the “Cell Viability” value (BV2 microglial cells; 5.0 μM) was 99.36 ± 1.31 and the “Cell Viability” value (BV2 microglial cells; 10.0 μM) was 99.37 ± 1.21. For the same compound, the “Cell Viability” value (BV2 microglial cells; 20.0 μM) was 99.67 ± 1.32, the “Cell Viability” value (BV2 microglial cells; 40.0 μM) was 99.57 ± 1.53 and the “Cell Viability” value (BV2 microglial cells; 80.0 μM) was 99.33 ± 1.30.
C[C@H]1CC[C@]2(C(=O)O[C@@H]3O[C@H](CO)[C@@H](O)[C@H](O)[C@H]3O)CC[C@]3(C)C(=CCC4[C@@]5(C)CC[C@H](O[C@@H]6OC[C@@H](O)[C@H](O)[C@H]6OS(=O)(=O)O)C(C)(C)C5CC[C@]43C)C2[C@]1(C)O (stereo partly drawn) [Compound 5, ilexpublesnin I] was tested, and the IC50 [1] was 50.7 ± 3.25 µM, the “Cell Viability” value (BV2 microglial cells; 5.0 μM) was 98.21 ± 1.93 and the “Cell Viability” value (BV2 microglial cells; 10.0 μM) was 99.33 ± 1.54. For the same compound, the “Cell Viability” value (BV2 microglial cells; 20.0 μM) was 99.32 ± 1.32, the “Cell Viability” value (BV2 microglial cells; 40.0 μM) was 99.21 ± 1.66 and the “Cell Viability” value (BV2 microglial cells; 80.0 μM) was 99.13 ± 1.28.
With C[C@@H]1CC[C@]2(C(=O)O[C@@H]3O[C@H](CO)[C@@H](O)[C@H](O)[C@H]3O)CC[C@]3(C)C(=CCC4[C@@]5(C)CC[C@H](OS(=O)(=O)[O-])[C@](C)(CO)C5CC[C@]43C)[C@@H]2[C@]1(C)O.[Na+] (stereo partly drawn) [Compound 6, ilexoside XXXV] the IC50 [1] was 22.3 ± 2.23 µM, the “Cell Viability” value (BV2 microglial cells; 5.0 μM) was 102.21 ± 1.03 and the “Cell Viability” value (BV2 microglial cells; 10.0 μM) was 102.28 ± 1.56. The “Cell Viability” value (BV2 microglial cells; 20.0 μM) was 103.35 ± 1.58, the “Cell Viability” value (BV2 microglial cells; 40.0 μM) was 103.26 ± 1.28 and the “Cell Viability” value (BV2 microglial cells; 80.0 μM) was 103.22 ± 1.89.
In the case of C=C1CC[C@]2(C(=O)O[C@@H]3O[C@H](CO)[C@@H](O)[C@H](O)[C@H]3O[C@@H]3O[C@@H](C)[C@H](O)[C@@H](O)[C@H]3O)CC[C@]3(C)C(=CC[C@@H]4[C@@]5(C)CC[C@H](O[C@@H]6OC[C@H](O)[C@H](O[C@@H]7O[C@H](CO)[C@@H](O)[C@H](O)[C@H]7O[C@@H]7O[C@H](CO)[C@@H](O)[C@H](O)[C@H]7O)[C@H]6O[C@@H]6O[C@@H](C)[C@H](O)[C@@H](O)[C@H]6O)C(C)(C)[C@@H]5CC[C@]43C)[C@@H]2[C@]1(C)O [Compound 7, ilekudinoside F], the IC50 [1] is reported as 55.2 ± 3.26 µM, the “Cell Viability” value (BV2 microglial cells; 5.0 μM) is reported as 101.55 ± 1.42 and the “Cell Viability” value (BV2 microglial cells; 10.0 μM) is reported as 101.68 ± 1.36. For the same compound, the “Cell Viability” value (BV2 microglial cells; 20.0 μM) was 101.76 ± 1.47, the “Cell Viability” value (BV2 microglial cells; 40.0 μM) was 101.38 ± 1.58 and the “Cell Viability” value (BV2 microglial cells; 80.0 μM) was 101.68 ± 1.38.
C[C@@H]1C[C@H]2[C@@H]3CCC4=CC(=O)C=C[C@]4(C)[C@@]3(F)[C@@H](O)C[C@]2(C)[C@@]1(O)C(=O)CO [Dexamethasone, reference compound] was tested, and the IC50 [1] was 0.03 µM, the “Edema Degree” value [2] was 5.80 ± 0.90 mg and the “Inhibitation Rate” value ([2]; ear edema vs control group) was 71.0%. The “Cell Viability” value (BV2 microglial cells; 5.0 μM) was 101.02 ± 1.01, the “Cell Viability” value (BV2 microglial cells; 10.0 μM) was 99.98 ± 1.32 and the “Cell Viability” value (BV2 microglial cells; 20.0 μM) was 100.25 ± 1.67. The “Cell Viability” value (BV2 microglial cells; 40.0 μM) was 101.37 ± 1.83 and the “Cell Viability” value (BV2 microglial cells; 80.0 μM) was 99.78 ± 1.63.
